From US8889704B2 (Array BioPharma Inc., priority 2011, dated 2014) come the findings set out here.

Common to all, as to format: biochemical
For one assay, the target named is PIM-1 (Homo sapiens, UniProt P11309). Nature of the assay: Enzyme PIM-1 Assay ([33P]ATP incorporation into PIM2tide, filter plate). The settings on record: averaged IC50; 35 μM ATP, 7.5 μM PIM2tide, 0.25 nM PIM-1, 60 min at 22° C. The procedure, abridged: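 Ten-point, 3-fold dilution series (10 μM top, 2% DMSO final) tested for inhibition of 33P transfer from 35 μM ATP to 7.5 μM PIM2tide by 0.25 nM PIM-1. Reaction 60 min, 22 °C, pH 7.4 MOPS/MgCl2 buffer; phosphocellulose capture, scintillation counting, IC50 where fitted POC equals 50.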

Assay [1] concerns the target T1, GST-tagged recombinant full-length human Pim-2 (Homo sapiens, UniProt Q9P1W9).
T1 construct: GST-tagged recombinant full-length human Pim-2; GST
Nature of the assay: PIM-2 Assay (as Example A). The following applies: averaged IC50; 4 μM ATP, 1.0 μM PIM2tide, 1.5 nM Pim-2. The gist of the method: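 IC50 was derived by 4-parameter logistic fitting of percent-of-control data over a 10-point, 3-fold series (highest 10 μM, 2% DMSO). Reactions held 1.5 nM GST-Pim-2 (full-length, human), 4 μM [γ-33P]ATP and 1.0 μM PIM2tide for 60 min at 22 °C, pH 7.4; 33P-peptide captured on P81 filters.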

The next assay has as its target recombinant rat PIM-3 (Rattus norvegicus, UniProt O70444). Nature of the assay: PIM-3 Assay (as Example A). The settings on record: averaged IC50; 30 μM ATP, 3.75 μM PIM2tide, 0.5 nM PIM-3. The procedure, abridged:
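33P incorporation from 30 μM [γ-33P]ATP into 3.75 μM PIM2tide by 0.5 nM rat PIM-3, 60 min at 22 °C in pH 7.4 MOPS buffer, read by P81 filter capture and scintillation counting. Compounds tested in 3-fold dilutions up to 10 μM final, 2% DMSO; percent-of-control data fitted by 4-parameter logistic for IC50.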

Structures can show the parent of a compound that is named as a salt.

T1 sequence (Q9P1W9 whole entry): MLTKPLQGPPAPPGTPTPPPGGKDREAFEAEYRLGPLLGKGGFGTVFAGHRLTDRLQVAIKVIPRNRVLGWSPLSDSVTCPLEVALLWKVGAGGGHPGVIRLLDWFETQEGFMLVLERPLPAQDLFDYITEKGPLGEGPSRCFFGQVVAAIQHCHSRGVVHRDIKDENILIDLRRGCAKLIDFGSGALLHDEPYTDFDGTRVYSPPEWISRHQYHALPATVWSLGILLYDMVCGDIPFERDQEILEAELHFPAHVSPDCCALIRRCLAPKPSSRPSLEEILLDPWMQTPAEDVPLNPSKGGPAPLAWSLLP
Chain of PIM-1 (P11309 whole entry, species assumed): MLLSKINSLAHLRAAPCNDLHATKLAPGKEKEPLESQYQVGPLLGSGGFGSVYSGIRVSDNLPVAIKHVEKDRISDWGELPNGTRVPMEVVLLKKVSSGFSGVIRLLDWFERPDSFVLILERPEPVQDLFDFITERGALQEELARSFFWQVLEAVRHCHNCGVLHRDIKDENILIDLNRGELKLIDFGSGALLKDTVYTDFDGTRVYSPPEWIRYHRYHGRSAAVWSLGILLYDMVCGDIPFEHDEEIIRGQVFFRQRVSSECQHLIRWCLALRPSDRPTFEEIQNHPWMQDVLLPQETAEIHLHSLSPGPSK

As to `CC(C)(CCO)c1cccc2ccc(-c3nnc4ccc([C@@H](N5CC[C@H](N)C5)C(F)(F)F)cn34)nc12` [Example 224, 3-(2-(6-((R)-1-((S)-3-aminopyrrolidin-1-yl)-2,2,2-trifluoroethyl)-[1,2,4]triazolo[4,3-a]pyridin-3-yl)quinolin-8-yl)-3-methylbutan-1-ol dihydrochloride], the IC50 is 0.36 nM on PIM-1, 94 nM in assay [1] and 0.7 nM at recombinant rat PIM-3.
With `FC(F)(F)[C@H](c1ccc2nnc(-c3ccc4cccc(OCC5CC5)c4n3)n2c1)N1C[C@@H]2C[C@H]1CN2` [Example 76, 2-(6-((S)-1-((1S,4S)-2,5-diazabicyclo[2.2.1]heptan-2-yl)-2,2,2-trifluoroethyl)-[1,2,4]triazolo[4,3-a]pyridin-3-yl)-8-(cyclopropylmethoxy)quinoline dihydrochloride], the figures for the IC50 (against PIM-1; in assay [1]; at recombinant rat PIM-3) were 0.4 nM, 52 nM and 3.6 nM, respectively.
For `CC(C)Oc1ccc2ccc(-c3nnc4ccc([C@H](N5CC[C@](C)(N)C5)C(F)(F)F)cn34)nc2c1` [Example 314, (S)-3-methyl-1-((S)-2,2,2-trifluoro-1-(3-(7-isopropoxyquinolin-2-yl)-[1,2,4]triazolo[4,3-a]pyridin-6-yl)ethyl)pyrrolidin-3-amine], in that order: 0.22 nM, 18.4 nM and 0.4 nM.
With `CCOc1cc2nc(-c3nnc4ccc([C@@H](N5CC[C@@H](CN)C5)C(F)(F)F)cn34)ccc2cc1F` [Example 279, ((S)-1-((R)-1-(3-(7-ethoxy-6-fluoroquinolin-2-yl)-[1,2,4]triazolo[4,3-a]pyridin-6-yl)-2,2,2-trifluoroethyl)pyrrolidin-3-yl)methanamine hydrochloride], the half-maximal inhibitory concentration (IC50) stood at 0.96 nM on PIM-1, 431 nM in assay [1] and 3.1 nM on recombinant rat PIM-3.
Take `N[C@H]1CCN([C@H](c2ccc3nnc(-c4ccc5cc(F)cc(C6CC6)c5n4)n3c2)C(F)(F)F)C1` [Example 177, (S)-1-((R)-1-(3-(8-cyclopropyl-6-fluoroquinolin-2-yl)-[1,2,4]triazolo[4,3-a]pyridin-6-yl)-2,2,2-trifluoroethyl)pyrrolidin-3-amine dihydrochloride]: the figures for the IC50 (on PIM-1; in assay [1]; on recombinant rat PIM-3) were 0.31 nM, above 100 nM and 1.7 nM, respectively.
With `CC(C)NC(=O)c1ccc2ccc(-c3nnc4ccc([C@@H](N5CC[C@@H](N)C5)C(F)(F)F)cn34)nc2c1` [Example 49, 2-(6-((R)-1-((R)-3-aminopyrrolidin-1-yl)-2,2,2-trifluoroethyl)-[1,2,4]triazolo[4,3-a]pyridin-3-yl)-N-isopropylquinoline-7-carboxamide dihydrochloride], the half-inhibitory concentration (IC50) against PIM-1 was found to be 0.22 nM; in assay [1], 68 nM; at recombinant rat PIM-3, 0.4 nM.
For the molecule `COCC(C)(C)Oc1cc(F)cc2ccc(-c3nnc4ccc([C@@H](N5CC[C@H](N)C5)C(F)(F)F)cn34)nc12` [Example 264, (S)-1-((R)-2,2,2-trifluoro-1-(3-(6-fluoro-8-(1-methoxy-2-methylpropan-2-yloxy)quinolin-2-yl)-[1,2,4]triazolo[4,3-a]pyridin-6-yl)ethyl)pyrrolidin-3-amine formate], the figures for the half-maximal inhibitory concentration (IC50) (at PIM-1; in assay [1]; on recombinant rat PIM-3) were 0.54 nM, 255 nM and 1.3 nM, respectively.
With `CCOc1cc2nc(-c3nnc4ccc([C@@H](N5CC[C@](C)(N)C5)C(F)(F)F)cn34)ccc2cc1F` [Example 247, (S)-1-((R)-1-(3-(7-ethoxy-6-fluoroquinolin-2-yl)-[1,2,4]triazolo[4,3-a]pyridin-6-yl)-2,2,2-trifluoroethyl)-3-methylpyrrolidin-3-amine dihydrochloride], the results for the half-inhibitory concentration (IC50) (against PIM-1; in assay [1]; on recombinant rat PIM-3) were 0.41 nM, 392 nM and 1.2 nM, respectively.
The corresponding values for `COC[C@@H](C)Oc1ccc2ccc(-c3nnc4ccc([C@@H](N5CC[C@H](N)C5)C(F)(F)F)cn34)nc2c1` [Example 149, (S)-1-((R)-2,2,2-trifluoro-1-(3-(7-((R)-1-methoxypropan-2-yloxy)quinolin-2-yl)-[1,2,4]triazolo[4,3-a]pyridin-6-yl)ethyl)pyrrolidin-3-amine dihydrochloride] are 0.17 nM, above 100 nM and 0.7 nM.
For `CO[C@H](C)COc1cc(-c2nnc3ccc([C@@H](N4CC[C@H](N)C4)C(F)(F)F)cn23)nc2ccccc12` [Example 291, (S)-1-((R)-2,2,2-trifluoro-1-(3-(4-((R)-2-methoxypropoxy)quinolin-2-yl)-[1,2,4]triazolo[4,3-a]pyridin-6-yl)ethyl)pyrrolidin-3-amine formate], in that order: 0.19 nM, 82 nM and 0.5 nM.
For `CC(C)C(=O)Nc1ccc2ccc(-c3nnc4ccc([C@@H](N5CC[C@H](N)C5)C(F)(F)F)cn34)nc2c1` [Example 70, N-(2-(6-((R)-1-((S)-3-aminopyrrolidin-1-yl)-2,2,2-trifluoroethyl)-[1,2,4]triazolo[4,3-a]pyridin-3-yl)quinolin-7-yl)isobutyramide], in that order: 0.18 nM, above 100 nM and 0.3 nM.
Take `COc1cccc2ccc(-c3nnc4ccc([C@@H](N5CC[C@](C)(N)C5)C(F)(F)F)cn34)nc12` [Example 246, (S)-3-methyl-1-((R)-2,2,2-trifluoro-1-(3-(8-methoxyquinolin-2-yl)-[1,2,4]triazolo[4,3-a]pyridin-6-yl)ethyl)pyrrolidin-3-amine dihydrochloride]: the 50% inhibitory concentration (IC50) was 1.77 nM at PIM-1, above 1000 nM in assay [1] and 15 nM at recombinant rat PIM-3.
Regarding `N[C@H]1CCN(C(c2ccc3nnc(-c4ccc5ccc(-c6cccnc6)cc5n4)n3c2)C(F)(F)F)C1` (stereo partly drawn) [Example 18, (3S)-1-(2,2,2-trifluoro-1-(3-(7-(pyridin-3-yl)quinolin-2-yl)-[1,2,4]triazolo[4,3-a]pyridin-6-yl)ethyl)pyrrolidin-3-amine tri-hydrochloride], the figures for the IC50 (against PIM-1; in assay [1]; on recombinant rat PIM-3) were 0.25 nM, 172 nM and 0.5 nM, respectively.
The corresponding values for `CC(C)Oc1cc(F)cc2ccc(-c3nnc4ccc([C@H](N5CC[C@](C)(N)C5)C(F)(F)F)cn34)nc12` [Example 216, (S)-3-methyl-1-((S)-2,2,2-trifluoro-1-(3-(6-fluoro-8-isopropoxyquinolin-2-yl)-[1,2,4]triazolo[4,3-a]pyridin-6-yl)ethyl)pyrrolidin-3-amine dihydrochloride] are 0.38 nM, 56 nM and 0.8 nM.
Consider `CC(C)c1cccc2ccc(-c3nnc4ccc([C@@H](N5CC[C@H](N)C5)C(F)(F)F)cn34)nc12` [Example 41, (S)-1-((R)-2,2,2-trifluoro-1-(3-(8-isopropylquinolin-2-yl)-[1,2,4]triazolo[4,3-a]pyridin-6-yl)ethyl)pyrrolidin-3-amine dihydrochloride], for which the IC50 against PIM-1 was found to be 0.11 nM; in assay [1], 16 nM; at recombinant rat PIM-3 it was 2 nM.
Turning to `Cc1c(-c2cnn(C)c2)ccc2ccc(-c3nnc4ccc([C@@H](N5CC[C@H](N)C5)C(F)(F)F)cn34)nc12` [Example 191, (S)-1-((R)-2,2,2-trifluoro-1-(3-(8-methyl-7-(1-methyl-1H-pyrazol-4-yl)quinolin-2-yl)-[1,2,4]triazolo[4,3-a]pyridin-6-yl)ethyl)pyrrolidin-3-amine dihydrochloride], the IC50 came to 0.2 nM against PIM-1, 74 nM in assay [1] and 0.2 nM on recombinant rat PIM-3.
For `CCc1cccc2ccc(-c3nnc4ccc([C@@H](N5C[C@@H](O)[C@H](O)C5)C(F)(F)F)cn34)nc12` [Example 73, (3R,4R)-1-((R)-1-(3-(8-ethylquinolin-2-yl)-[1,2,4]triazolo[4,3-a]pyridin-6-yl)-2,2,2-trifluoroethyl)pyrrolidine-3,4-diol], the concentration for half-maximal inhibition (IC50) was 0.17 nM against PIM-1, above 100 nM in assay [1] and 32 nM at recombinant rat PIM-3.
For the molecule `N[C@H]1CCN([C@H](c2ccc3nnc(-c4ccc5cc(F)c(C6(CO)CC6)cc5n4)n3c2)C(F)(F)F)C1` [Example 164, (1-(2-(6-((R)-1-((S)-3-aminopyrrolidin-1-yl)-2,2,2-trifluoroethyl)-[1,2,4]triazolo[4,3-a]pyridin-3-yl)-6-fluoroquinolin-7-yl)cyclopropyl)methanol dihydrochloride], the IC50 against PIM-1 is 2.63 nM; in assay [1] it was above 100 nM; at recombinant rat PIM-3, 7.3 nM.
In the case of `CC(C)(C)c1cccc2ccc(-c3nnc4ccc([C@@H](N5CC[C@H](N)C5)C(F)(F)F)cn34)nc12` [Example 45, (S)-1-((R)-1-(3-(8-tert-butylquinolin-2-yl)-[1,2,4]triazolo[4,3-a]pyridin-6-yl)-2,2,2-trifluoroethyl)pyrrolidin-3-amine dihydrochloride], the values for the IC50 (at PIM-1; in assay [1]; on recombinant rat PIM-3) were 0.21 nM, 29 nM and 0.5 nM, respectively.
